Test system: SK-N-SH cells
Assay: Cytotoxicity assay (MTS) in SK-N-SH cells
Format: cell-based
Conditions: 3 days
Protocol: Cytotoxic effect of formononetin on Vero or SK-N-SH cells was assayed by MTS (promega) assay. Briefly, cells (3 × 10^4 cells/well) were seeded into 96-well culture plates and were incubated overnight. Then, the medium was removed and different concentrations of formononetin were applied in triplicate. After 3 days’ incubation, the cytotoxicity of formononetin was determined by MTS assay. The TC50 was defined as the concentration that inhibits 50% cellular growth in comparison with the controls and the TC0 was defined as the maximal non-toxicity dose.

COc1ccc(-c2coc3cc(O)ccc3c2=O)cc1 [Formononetin]
TC0 (maximal non-toxicity dose): 55.92 ± 0 µmol/L
TC50 (50% toxicity concentration): 198.80 ± 6.02 µM
TC0 (maximal non-toxicity dose) (listed as formononetin): 55.92 µmol/L
TC50 (50% toxicity concentration) (listed as formononetin): 198.80 µM

From paper PMC4351682, “Formononetin inhibits enterovirus 71 replication by regulating COX- 2/PGE2 expression” (Virology Journal, 2015)
